From US11472812B2, “Anti-cancer compounds targeting Ral GTPases and methods of using the same” (The Regents of the University of Colorado, a body corporate, priority 2014, dated 2022)
Entries after “also recorded” stand apart in the source; their conditions may differ. Read-outs that look alike come from different tables or passages of the source.

Assays:
[1] = tested on: H2122 cells; experiment: Soft agar colony formation (anchorage-independent growth); type: cell-based, human; details: for further growth inhibition by drug after siRNA knockdown of RalA and RalB: H2122 cells with siRNA knockdown of RalA and RalB; for growth inhibition effect with overexpression of constitutively active RalAG23V or RalBG23V: H2122 cells, transient transfection
Protocol: (§1) The effects of RBC8 and BQU57 on human lung cancer cell growth were evaluated. Because Ral is well-known for its role in anchorage independence, we carried out growth inhibition assays in soft agar. Four human lung cancer cells H2122, H358, H460 and Calu6 were used in a series of experiments to determine drug uptake, biologic specificity, and effect. To measure growth inhibition of human lung cancer cells under anchorage-independent conditions in soft agar, cells were seeded into 6-well plates (coated with a base layer made of 2 ml of 1% low-melting-point agarose) at 15,000 cells per well in 3 ml of 0.4% low-melting-point agarose containing various concentration of drug. Two to four weeks (depending on cell line) after incubation, cells were stained with 1 mg/ml MTT and colonies were counted under a microscope.
(§2) For the chemo-genetic experiments, siRNA treated cells were seeded into soft agar in the presence of various concentrations of drug. For the overexpression experiments, H358 cells stably overexpressing FLAG, FLAG-RalA^G23V or FLAG-RalB^G23V were generated and cells were subjected to the soft agar colony formation assay in the presence of drug. Attempts to stably overexpress FLAG-RalA^G23V or FLAG-RalB^G23V in H2122 cells were unsuccessful and the rescue experiments with H2122 were carried out 72 hrs after the transient transfection with FLAG, FLAG-RalA^G23V or FLAG-RalB^G23V using the soft agar colony formation assay in the presence of drug.

[2] = tested on: H358 cells; experiment: as above; type: cell-based, human; details: for further growth inhibition by drug after siRNA knockdown of RalA and RalB: H358 cells with siRNA knockdown of RalA and RalB; for growth inhibition effect with overexpression of constitutively active RalAG23V or RalBG23V: H358 cells, stable overexpression
Protocol: as §1, §2

[3] = tested on: H2122 human lung cancer cells; experiment: Cellular uptake, LC/MS-MS of cell lysates; type: in vitro ADME; details: 10 μM, 1-60 min
Protocol: To quantitate how well the test compounds get into cells, H2122 human lung cancer cells were seeded at 3×10^5 cells per well in 6-well plates and let sit for 16 h. Compounds (10 μM) were individually dosed in triplicate; cells were then collected into 500 μl ice-cold ACN:MeOH:H2O (1:1:1) at different time points (1, 5, 15, 30 and 60 min). Drug concentrations in cell lysates were then determined using LC/MS-MS methods as described with respect to the pharmacokinetic and pharmacodynamic studies in mice, described in detail in Example 5, below.

[4] = Pharmacokinetics after single intraperitoneal injection; type: in vivo; details: 50.0 mg/kg i.p., n = 3, nude mice
Protocol: Inhibition of Ral activity and tumor growth were evaluated in human lung cancer mouse models. Pharmacokinetics (PK) of RBC8 and BQU57 were first analyzed in nude mice to test bioavailability. Following a single intraperitoneal injection (50 mg/Kg), blood samples were collected at time intervals from 0 to 5 h post-dose (9 time points).

[5] = tested on: H2122 human lung cancer cells; experiment: H2122 xenograft tumor growth; type: in vivo, nude mice; details: i.p. daily except weekends, initiated 24 h after inoculation; RBC8 50 mg/kg/d; BQU57 and BQU85 5, 10, 20, and 50 mg/kg/d
Protocol: We next determined compound entry into tumor tissue. To do so, athymic nude mice (Ncr nu/nu; National Cancer Institute, Fredrick, Md.) were received at 5 to 6 weeks of age and were allowed to acclimate for 2 weeks in sterile micro isolator cages with constant temperature and humidity. Mice had free access to food and water. H2122 cells in log-phase growth were harvested on the day of use. Cells were suspended in un-supplemented RPMI 1640 medium and 0.1 mL (2×10^5 cells) was injected s.c. four sites per mice. For H358 xenografts, cells (5×10^6) were mixed with matrigel (20% final concentration) and 0.1 mL was inoculated s.c. per site. After cell inoculation, mice were monitored daily, weighed twice weekly and caliper measurements begun when tumors visible. Tumor volume was calculated by (L×W2)/2, where L is longer measurement of tumor and W is the smaller tumor measurement. Drug treatment started the day after inoculation. Compounds were dissolved in DMSO and injected i.p. daily except weekends at 10/20/50 mg/kg. […] The effect of the Ral inhibitors on xenograft tumor growth was then tested in nude mice. Mice were inoculated subcutaneously with H2122 human lung cancer cells and treated intraperitoneally with 50 mg/kg/d (except weekends) of RBC8 24 h post inoculation.

[6] = molecular target: T1, RalA (Homo sapiens, UniProt P11233); experiment: Ral activity pull-down assay with RalBP1 agarose beads in cells; type: cell-based; set-up: endogenous in cells; host or cells: H2122 and H358 human lung cancer cells; details: H2122 and H358 cells, 10 μM compound, 3 hrs
T1 sequence (P11233 1-206): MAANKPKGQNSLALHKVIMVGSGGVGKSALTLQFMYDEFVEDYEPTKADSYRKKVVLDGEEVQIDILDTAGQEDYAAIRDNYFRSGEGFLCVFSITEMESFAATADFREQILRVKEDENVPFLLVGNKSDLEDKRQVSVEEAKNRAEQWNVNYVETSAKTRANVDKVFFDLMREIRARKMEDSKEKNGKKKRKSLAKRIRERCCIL
Protocol: (§3) FIGS. 6A-6E show the cellular uptake of Ral inhibitors in vitro. H2122 human lung cancer cells were treated with 10 μM of RBC8 (FIG. 6A), BQU57 (FIG. 6B), BQU85 (FIG. 6C), and RBC5 (FIG. 6D). Cells were collected at different time points (1, 5, 15, 30 and 60 min), and drug concentrations in cells determined using LC/MS-MS methods (n=3 for each time point). […] Cells were grown under anchorage-independent conditions and treated with 10 μM compounds for 3 hours. Ral activity in cell lysates were then determined using the pull down assay with RalBP1 agarose beads. Data represent three independent experiments.
(§4) To confirm that Ral activity is inhibited in H2122 and H358 cells by drug treatment, we performed the Ral activity pull-down assay. Cells were treated with drug for 3 hrs, collected and Ral activity measured using the RalBP1 pull-down assay kit (Millipore #14-415). RBC8 and BQU57 but not RBC5 inhibited both RalA and RalB activity in both cell lines (FIG. 6E).

[7] = molecular target: T2, RalB (Homo sapiens, UniProt P11234); experiment: as above; type: cell-based; set-up: endogenous in cells; host or cells: H2122 and H358 human lung cancer cells; details: H2122 and H358 cells, 10 μM compound, 3 hrs
T2 sequence (P11234 1-206): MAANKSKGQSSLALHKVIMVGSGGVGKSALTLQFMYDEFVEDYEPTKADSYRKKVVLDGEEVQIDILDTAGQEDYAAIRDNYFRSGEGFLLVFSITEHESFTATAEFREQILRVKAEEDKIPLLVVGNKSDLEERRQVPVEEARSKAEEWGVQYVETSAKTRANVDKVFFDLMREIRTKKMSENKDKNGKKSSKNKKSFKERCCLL
Protocol: as §3, §4

IC50 ([1]; H2122, soft agar, 2-4 weeks, read-out: IC50 (50% reduction in colony number)) | IC50 ([2]; H358, soft agar, 2-4 weeks, read-out: IC50 (50% reduction in colony number)) | T1/2 [4] | SMILES | further growth inhibition by drug after siRNA knockdown of RalA and RalB [1] | growth inhibition effect with overexpression of constitutively active RalAG23V or RalBG23V [1] | IC50 ([1]; Homo sapiens, NCI-H2122, read-out: IC50 (50% reduction in colony number)) | further growth inhibition by drug after siRNA knockdown of RalA and RalB [2] | growth inhibition effect with overexpression of constitutively active RalAG23V or RalBG23V [2] | IC50 ([2]; Homo sapiens, NCI-H358, read-out: IC50 (50% reduction in colony number)) | cellular uptake [3] | Co [4] | half-life ([4]; mouse, blood, ip) | AUC(0-t) ([4]; mouse, blood, ip, read-out: AUC0-5 hr) | xenograft tumor growth inhibition [5] | inhibition of RalA activity [6] | inhibition of RalB activity [7]
– | – | – | Cc1nn(C)c2c1C(c1ccc(C(F)(F)F)cc1)C(C#N)=C(N)O2 (stereo not shown) [BQU57, 6-amino-1,3-dimethyl-4-(4-(trifluoromethyl)phenyl)-1,4-dihydropyrano[2,3-c]pyrazole-5-carbonitrile] | did not result in significant further inhibition | rescue | 2 µM | did not result in significant further inhibition | rescue | 1.3 µM | readily get into cells | 41.6 ± 5.1 µM | 1.5 ± 0.11 h | 28600 ± 2100 ng·h/mL | dose-dependent growth inhibition effects were observed; also recorded: inhibited xenograft tumor growth | inhibited | inhibited
3.5 µM | 3.4 µM | 0.58 ± 0.26 h | COc1ccc(OC)c(C2C(C#N)=C(N)Oc3n[nH]c(-c4ccc5ccccc5c4)c32)c1 (stereo not shown) [RBC8] | did not result in significant further inhibition | rescue | – | did not result in significant further inhibition | rescue | – | readily get into cells | 41.2 ± 4.2 µM | – | – | inhibited xenograft tumor growth | inhibited | inhibited
